Read-outs that look alike come from different tables or passages of the source.
Tests used:
[1] = target: CrufCSP1; experiment: Fluorescence competitive binding assay with 1-NPN as probe; design: species or system Cotesia ruficrus; settings: for IC50: recombinant CrufCSP1 2 μM, ligand 0 to 30 μM, tris-HCl pH 7.4
Procedure: (§1) The binding affinity between CrufCSP1 and the selected volatile compounds was determined using an F-7000 fluorescence spectrophotometer (Hitachi, Tokyo, Japan). N-phenyl-1-naphthylamine (1-NPN), a fluorescence probe, was used to assess the binding affinity. A total of 24 volatiles, i.e., alcohols (heptanol, undecanol, tetradecanol, cis-3-hexen-1-ol, 1,14-tetradecanediol, 2-hexanol, phytol, and linalool), aldehydes (hexanal, heptanal, octanal, nonanal, decanal, dodecanal, pentadecanal, benzaldehyde, p-methyl benzaldehyde, and trans-2-hexenal), and others (2-hydroxy-5-methylacetophenone, 2-heptanone, palmitic acid, N,N-dimethylcaprylamide, DMNT, and cis-3-hexenyl acetate), were selected for the fluorescence binding assay with CrufCSP1. Of these compounds, our research group previously identified undecanol, tetradecanol, 2-hexanol, 1,14-tetradecanediol, phytol, dodecanal, pentadecanal, p-methyl benzaldehyde, palmitic acid, 2-hydroxy-5-methylacetophenone, and N,N-dimethylcaprylamide in the larvae of S. frugiperda. The remaining compounds were chosen based on previous studies that identified them as corn volatiles.
To prepare the tested chemicals, all were dissolved in chromatographic grade methanol to achieve a 100 mM solution, which was then stored at −20 °C. Before use, this solution was diluted to 1 mM. CrufCSP1 was dissolved in 20 mM of tris-HCl (pH 7.4) and then diluted to a 2 μM working solution. To ensure the binding affinity of 1-NPN to the protein, the CrufCSP1 solution was titrated with 1-NPN with a concentration range of 2 to 20 μM. For the fluorescence competitive binding assays, each ligand was added to a mixture containing CrufCSP1 (2 μM) and 1-NPN (2 μM) at concentrations ranging from 0 to 30 μM. The maximum fluorescence intensity was then recorded and plotted against the ligand concentration based on the average of the three repeats. The dissociation constant (Kd) for binding between CrufCSP1 and 1-NPN was calculated using the Scatchard linear regressive equation in the software GraphPad Prism 8.0 (GraphPad Software Inc., La Jolla, CA, USA). Additionally, the ligand-binding affinity (Ki) was calculated utilizing the following equation: Ki=[IC50]/(1+[1−NPN]/K1−NPN) where IC50 represents the maximum concentration at which the ligand replaces 50% of the 1 − NPN fluorescence, [1 − NPN] denotes the free concentration of 1-NPN, and K1-NPN represents the dissociation constant of the protein/1 − NPN complex.

[2] = target: CrufCSP1; experiment: Binding of fluorescent probe 1-NPN to recombinant CrufCSP1 (Scatchard plot); design: species or system Cotesia ruficrus; settings: CrufCSP1 2 μM titrated with 1-NPN 2 to 20 μM, read-out: dissociation constant toward 1-NPN
Procedure: as §1, with “Of these compounds, our research group previously identified undecanol, tetradecanol, 2-hexanol, 1,14-tetradecanediol, phytol, dodecanal, pentadecanal, p-methyl benzaldehyde, palmitic acid, 2-hydroxy-5-methylacetophenone, and N,N-dimethylcaprylamide in the larvae of S. frugiperda. The remaining compounds were chosen based on previous studies that identified them as corn volatiles.” left out
To prepare the tested chemicals, all were dissolved in chromatographic grade methanol to achieve a 100 mM solution, which was then stored at −20 °C. […] For the fluorescence competitive binding assays, each ligand was added to a mixture containing CrufCSP1 (2 μM) and 1-NPN (2 μM) at concentrations ranging from 0 to 30 μM. The maximum fluorescence intensity was then recorded and plotted against the ligand concentration based on the average of the three repeats. […]

[3] = calculated from IC50: Ki=[IC50]/(1+[1-NPN]/K1-NPN), CrufCSP1 2 μM, 1-NPN 2 μM

| Ki [1, 3] | IC50 ([1]; 1-NPN 2 μM) | Compound | further results |
| --- | --- | --- | --- |
| 20 µM | 22.8 µM | CC(=O)c1cc(C)ccc1O [2-Hydroxy-5-methylacetophenone] | Ki ([1]; calculated from IC50: Ki=[IC50]/(1+[1-NPN]/K1-NPN), CrufCSP1 2 μM, 1-NPN 2 μM, listed as 2-hydroxy-5-methylacetophenone): < 20 µM |
| > 50 µM | > 50 µM | OCCCCCCCCCCCCCCO [1,14-Tetradecanediol] |  |
| 36 µM | 41.1 µM | CCCCCCCCCCCC=O [Dodecanal] |  |
| 27.7 µM | 31.6 µM | CCCCCCCO [Heptanol] |  |
| 19.8 µM | 22.6 µM | C=CC(C)(O)CCC=C(C)C (centres unmarked) [Linalool] | Ki ([1]; calculated from IC50: Ki=[IC50]/(1+[1-NPN]/K1-NPN), CrufCSP1 2 μM, 1-NPN 2 μM, listed as linalool): < 20 µM |
| 19.4 µM | 22.1 µM | CCCCCC=O [Hexanal] | Ki ([1]; calculated from IC50: Ki=[IC50]/(1+[1-NPN]/K1-NPN), CrufCSP1 2 μM, 1-NPN 2 μM, listed as hexanal): < 20 µM |
| > 50 µM | > 50 µM | CCCCC(C)O (centres unmarked) [2-Hexanol] |  |
| > 50 µM | > 50 µM | CCCCCC(C)=O [2-Heptanone] |  |
| > 50 µM | > 50 µM | CCCCCCCCCCCCCCO [Tetradecanol] |  |
| > 50 µM | > 50 µM | CCCCCCC=O [Heptanal] |  |
| 15 µM | 17.2 µM | CCCCCCCC=O [Octanal] | Ki ([1]; calculated from IC50: Ki=[IC50]/(1+[1-NPN]/K1-NPN), CrufCSP1 2 μM, 1-NPN 2 μM, listed as octanal): < 20 µM |
| > 50 µM | > 50 µM | CCCCCCCCCCCCCCCC(=O)O [Palmitic acid] |  |
|  |  | c1ccc(Nc2cccc3ccccc23)cc1 [1-NPN, N-phenyl-1-naphthylamine] | Kd [2]: 7.67 µM |
| 24.7 µM | 28.2 µM | CC/C=C\CCO [cis-3-Hexen-1-ol] |  |
| > 50 µM | > 50 µM | CCCCCCCCCCCO [Undecanol] |  |
| > 50 µM | > 50 µM | CCCCCCCCC=O [Nonanal] |  |
| 29.2 µM | 33.4 µM | CC/C=C\CCOC(C)=O [cis-3-Hexenyl acetate] |  |
| 21.8 µM | 24.9 µM | CCCCCCCCCC=O [Decanal] |  |
| 19.3 µM | 22 µM | CCCCCCCC(=O)N(C)C [N,N-Dimethylcaprylamide] | Ki ([1]; calculated from IC50: Ki=[IC50]/(1+[1-NPN]/K1-NPN), CrufCSP1 2 μM, 1-NPN 2 μM, listed as N,N-dimethylcaprylamide): < 20 µM |

| Compound | Ki [1, 3] | IC50 ([1]; 1-NPN 2 μM) | further results |
| --- | --- | --- | --- |
| O=Cc1ccccc1 [Benzaldehyde] |  | 17.4 µM | Ki [1]: 15.2 µM; Ki ([1]; listed as benzaldehyde): < 20 µM |
| Cc1ccc(C=O)cc1 [p-Methyl benzaldehyde] |  | 46 µM | Ki [1]: 40.3 µM |
| CCC/C=C/C=O [trans-2-Hexenal] |  | 16.5 µM | Ki [1]: 14.5 µM; Ki ([1]; listed as trans-2-hexenal): < 20 µM |
| CCCCCCCCCCCCCCC=O [Pentadecanal] |  | 44.5 µM | Ki [1]: 39 µM |
| Phytol |  | > 50 µM | Ki [1]: > 50 µM |
| C=C/C=C(\C)CCC=C(C)C [DMNT] |  | > 50 µM | Ki [1]: > 50 µM |
